The NIST ThermoML archive (doi:10.1016/j.jct.2010.09.008)
Numbers after ± are expanded uncertainties.

Assays:
[1] = relative permittivity at zero frequency (dimensionless); conditions: 101.33 kPa, Liquid, AC method
[2] = 101.33 kPa, Liquid, Vibrating tube method
[3] = relative permittivity at zero frequency (dimensionless); xn = mol fraction of the nth substance listed; conditions: 101.3 kPa, Liquid, AC Method
[4] = xn = mol fraction of the nth substance listed; conditions: 101.3 kPa, Liquid, Vibrating tube method

COCCOCCOCCOC [2,5,8,11-tetraoxadodecane]
Conditions	mass density, 288.15 K [kg/m3]	mass density, 298.15 K [kg/m3]	mass density, 308.15 K [kg/m3]	relative permittivity at zero frequency, 288.15 K	relative permittivity at zero frequency, 298.15 K	relative permittivity at zero frequency, 308.15 K
[1]	–	–	–	7.89 ± 0.16	7.63 ± 0.15	7.38 ± 0.15
[2]	990.08 ± 0.29	980.58 ± 0.29	971.07 ± 0.29	–	–	–

COCCOCCOCCOC [2,5,8,11-tetraoxadodecane] + CCCCCCC
Conditions	mass density [kg/m3]	relative permittivity at zero frequency
[3], 288.15 K, x2 = 0.0502	–	7.53 ± 0.15
[3], 288.15 K, x2 = 0.0996	–	7.18 ± 0.14
[3], 288.15 K, x2 = 0.2037	–	6.44 ± 0.13
[3], 288.15 K, x2 = 0.3128	–	5.7 ± 0.11
[3], 288.15 K, x2 = 0.3994	–	5.13 ± 0.1
[3], 288.15 K, x2 = 0.5007	–	4.49 ± 0.09
[3], 288.15 K, x2 = 0.6027	–	3.88 ± 0.08
[3], 288.15 K, x2 = 0.7014	–	3.32 ± 0.07
[3], 288.15 K, x2 = 0.8007	–	2.81 ± 0.06
[3], 288.15 K, x2 = 0.8993	–	2.35 ± 0.05
[3], 288.15 K, x2 = 0.9502	–	2.14 ± 0.04
[3], 298.15 K, x2 = 0.0511	–	7.28 ± 0.15
[3], 298.15 K, x2 = 0.0992	–	6.94 ± 0.14
[3], 298.15 K, x2 = 0.2012	–	6.26 ± 0.13
[3], 298.15 K, x2 = 0.3025	–	5.59 ± 0.11
[3], 298.15 K, x2 = 0.4095	–	4.91 ± 0.1
[3], 298.15 K, x2 = 0.5014	–	4.36 ± 0.09
[3], 298.15 K, x2 = 0.6006	–	3.79 ± 0.08
[3], 298.15 K, x2 = 0.6989	–	3.26 ± 0.07
[3], 298.15 K, x2 = 0.7898	–	2.81 ± 0.06
[3], 298.15 K, x2 = 0.902	–	2.31 ± 0.05
[3], 298.15 K, x2 = 0.9501	–	2.11 ± 0.04
[3], 308.15 K, x2 = 0.0504	–	7.04 ± 0.14
[3], 308.15 K, x2 = 0.1008	–	6.71 ± 0.13
[3], 308.15 K, x2 = 0.2074	–	6.01 ± 0.12
[3], 308.15 K, x2 = 0.3092	–	5.37 ± 0.11
[3], 308.15 K, x2 = 0.4042	–	4.8 ± 0.1
[3], 308.15 K, x2 = 0.5048	–	4.22 ± 0.08
[3], 308.15 K, x2 = 0.6022	–	3.69 ± 0.07
[3], 308.15 K, x2 = 0.7071	–	3.15 ± 0.06
[3], 308.15 K, x2 = 0.801	–	2.7 ± 0.05
[3], 308.15 K, x2 = 0.9016	–	2.28 ± 0.05
[3], 308.15 K, x2 = 0.9514	–	2.09 ± 0.04
[4], 288.15 K, x2 = 0.0478	977.7 ± 0.3	–
[4], 288.15 K, x2 = 0.1018	963.5 ± 0.3	–
[4], 288.15 K, x2 = 0.2008	936.93 ± 0.3	–
[4], 288.15 K, x2 = 0.3046	908.26 ± 0.3	–
[4], 288.15 K, x2 = 0.4046	879.55 ± 0.3	–
[4], 288.15 K, x2 = 0.502	850.68 ± 0.3	–
[4], 288.15 K, x2 = 0.5988	821.04 ± 0.3	–
[4], 288.15 K, x2 = 0.6937	791 ± 0.3	–
[4], 288.15 K, x2 = 0.7981	756.91 ± 0.31	–
[4], 288.15 K, x2 = 0.8992	722.88 ± 0.31	–
[4], 288.15 K, x2 = 0.9471	706.43 ± 0.31	–
[4], 298.15 K, x2 = 0.0478	968.24 ± 0.3	–
[4], 298.15 K, x2 = 0.1018	954.08 ± 0.3	–
[4], 298.15 K, x2 = 0.2008	927.56 ± 0.3	–
[4], 298.15 K, x2 = 0.3046	898.85 ± 0.3	–
[4], 298.15 K, x2 = 0.4046	870.31 ± 0.3	–
[4], 298.15 K, x2 = 0.502	841.51 ± 0.3	–
[4], 298.15 K, x2 = 0.5988	811.96 ± 0.3	–
[4], 298.15 K, x2 = 0.6937	782.03 ± 0.3	–
[4], 298.15 K, x2 = 0.7981	748.1 ± 0.31	–
[4], 298.15 K, x2 = 0.8992	714.23 ± 0.31	–
[4], 298.15 K, x2 = 0.9471	697.88 ± 0.31	–
[4], 308.15 K, x2 = 0.0478	958.76 ± 0.3	–
[4], 308.15 K, x2 = 0.1018	944.65 ± 0.3	–
[4], 308.15 K, x2 = 0.2008	918.17 ± 0.3	–
[4], 308.15 K, x2 = 0.3046	889.51 ± 0.3	–
[4], 308.15 K, x2 = 0.4046	861.04 ± 0.3	–
[4], 308.15 K, x2 = 0.502	832.28 ± 0.3	–
[4], 308.15 K, x2 = 0.5988	802.84 ± 0.3	–
[4], 308.15 K, x2 = 0.6937	773 ± 0.3	–
[4], 308.15 K, x2 = 0.7981	739.22 ± 0.31	–
[4], 308.15 K, x2 = 0.8992	705.5 ± 0.31	–
[4], 308.15 K, x2 = 0.9471	689.25 ± 0.31	–
